Laboratory results published in patent US20200330655A1, “DELIVERY OF NITRIC OXIDE-RELEASING PHOSPHOLIPIDS, LIPOSOMES, AND HIGH DENSITY LIPOPROTEIN-LIKE NANOPARTICLES (HDL NPS) BY DRUG ELUTING STENTS AND INTRA-ARTERIAL INJECTION” (Northwestern University, priority 2016, published 2020).

Tests used:
[1] = test system: porcine coronary injury model; conditions: drug eluting stent loaded with the NO donor; cited from earlier work
[2] = SNO DPPTE exposure to light and/or room temperature; assay type: physicochemical; conditions: FIG. 17

| Substance | neointimal hyperplasia and restenosis [1] | stability on exposure to light and/or room temperature [2] |
| --- | --- | --- |
| nitroprus side | did not reduce | – |
| S-nitrosylated 1,2-dipalmitoyl-sn-glycero-3-phosphothioethanol [SNO DPPTE] | – | forms disulfide bonds |
